Where two headings read alike, the source gives them in different places. Marks after values point to notes of the source that are not given here. Ends that are not written are not given here. Peptide text beside a SMILES is read from it. * marks the point of attachment. RG108 = O=C1c2ccccc2C(=O)N1[C@@H](Cc1c[nH]c2ccccc12)C(=O)*
Key:
A375 cells = assay: A375 cell viability (CellTiterGlo); format: cell-based; settings: 72 hours
Method: Immune modulation functions of immodulin peptides have great potential untility in the field of cancer. A375 cell line was obtained from American Type Culture Collection (ATCC). They were grown in a T-75 flask in DMEM Medium containing 10% fetal bovine serum and penicillin-streptomycin at 37° C. in a humidified, 5% CO2 incubator. Cells (100 µl, 2,000 cells/well) were plated in a 96-well plate and incubated overnight at 37° C. in a humidified, 5% CO2 incubator. Next day, 10 µl/well of compounds were added (quadruplicate wells). After 72 hour incubation with the compound, cell viability was measured in a luminometer after the addition of 100 IL/well CellTiterGlo reagent (Promega Inc, Madison, WI) as recommended by the manufacturer. Anti-cancer activity of immodulin peptides on A375 cells: A 96-well plate was seeded with 2,000 A375 cells per well in DMEM medium containing 10% FBS and PenStrep. After 24 hrs at 37 deg C., compounds and peptides were added (each treatment done in quadruplicate). After a further 72 hours incubation, 100 μL/well of CTG assay reagent purchased from Promega Inc. (Madison, WI) was added. Plate was read after 10 minutes, as recommended by the manufacturer. Peptides were added at 2 uM. The results of this experiment are shown below, expressed as percent survival of A375 cells.

THP1-Dual monocytes [1] = assay: THP1-Dual differentiation assay, immX3 peptide plus helper or inhibitor molecule; format: cell-based, human; settings: immX3 peptide (330 nM) in all samples plus helper at the concentration given; immX3 with buffer = 100.0
Method: (§1) Mammalian cell differentiation assays using THP1-Dual monocytes reporter cell line (Invivogen Inc, San Diego, CA) seeded at 2×10e5 cells per well in 96-well plates and cultured at 37 degrees C. in RPMI-1640 growth medium plus 10% fetal bovine serum and 1% penicillin/streptomycin, then treated for 24 hours with either 100 ng/ml Phorbol 12-myristate 13-acetate (PMA protocol; Cayman Chemical Company, Ann Arbor, MI) or a mixture of IL-4 (100 ng/ml), GM-CSF (100 ng/ml), TNF-alpha (20 ng/ml) and ionomycin (200 ng/ml) (Cytokine protocol; Peprotech, Rocky Hill, NJ). Peptide (330 nM) was then added, and incubation continued for an additional 24 hours. Culture supernatants were then assayed for CCL22. Plates with adherent cells were washed with PBS and assayed for immunoreactivity of surface markers such as CD169, Clec9a, Clec12a or MHCII using fuorescent tag- or biotin-labeled anti-human antibodies purchased from Miltenyi Biotec (Auburn, CA) and a relevant secondary detection reagent, or by fluorescence counts.
The THP1-Dual cell differentiation assay was carried out as described above in Example 2, using immX3 peptide (330 nM) in all samples plus the indicated helper or inhibitor molecule. AU=arbitrary ELISA units. **p<0.01.

THP1-Dual monocytes [2] = assay: THP1-Dual monocyte differentiation assay, cytokine protocol; format: cell-based, human; settings: peptide 330 nM, 24 hours, relative to immX3AVD = 100
Method: as §1

[3] = Experiment 4D binding to FITC-labelled heparin; settings: biotinylated peptide 1 ug/well; 1 ug FITC-labelled heparin, 90 minutes
Method: (§2) Streptavidin-coated 96-well plates (G-Biosciences, St. Louis, MO) were pre-treated with biotinylated peptides [see Example 1 for key] at 1 ug/well, at room temperature for 60 minutes. The plate was washed with PBS buffer and then 1 ug FITC-labelled heparin or hyaluronic acid in 100 uL PBS buffer was added per well (all tests in quadruplicate). Incubation proceeded for 90 minutes at room temperature, followed by two PBS washes. The plate was read in a standard laboratory fluorometer (488/525 nm exitation/[…]) and the counts normalized for immX3 peptide binding=100. Values statistically above background are shown in bold font. **p<0.05 versus immX3AVD.

THP1-Dual monocytes [4] = assay: THP1-Dual monocyte differentiation assay, PMA protocol; format: cell-based, human; settings: peptide 330 nM, 24 hours; for CD169+ (AU): relative to immX3AVD = 100
Method: as §1

[5] = Experiment 4D binding to FITC-labelled hyaluronic acid; settings: biotinylated peptide 1 ug/well; 1 ug FITC-labelled hyaluronic acid, 90 minutes
Method: as §2

[6] = Ferric iron-binding assay of biotinylated immodulin peptides; settings: N-terminally biotinylated peptide, 400 ng per well, 60 min room temperature; immX3AVD = 100
Description: N-terminally biotinylated versions of the peptides listed below were used in ferric iron-binding assays involving either an Alexa488-labeled streptavidin protocol (Binding Assay 1) or FITC-NTA assay (Binding Assay 2). Fluorescence was standardized to binding with immX3AVD control peptide (100) and the average of multiple experiments using both protocols is shown. P values are shown relative to the control immX3AVD peptide (**<0.05). D-amino acid residues are underlined in the sequences and the extension tripeptide of immX peptides is shown in bold font. Binding Assay 1 was done as follows: NTA coated 96-well plates (G-Biosciences, St. Louis, MO) were charged with ferric chloride and contacted with equimolar biotinylated peptide: streptavidin-A488 complex (400 ng peptide per well) for 60 min at room temperature, washed with phosphate-buffered saline (PBS) and read at 525 nm in a fluorescence counter. Binding Assay 2 was done as follows: Streptavidin coated 96-well plates (G-Biosciences, St. Louis, MO) were contacted with 400 ng peptide per well in PBS buffer for 60 minutes at room temperature, washed in PBS, then contacted with FITC-NTA (TRC, Toronto, Canada) complexed with equimolar ferric chloride (10× molar equivalent per well) for 60 min at room temperature, washed with PBS and read at 525 nm in a fluorescence counter.

[7] = tested on: rat scald-endotoxemia model; assay: Experiment 5B rat scald-endotoxemia model; format: in vivo, Sprague Dawley rats; settings: for Change in body weight (Pct vs Day 1): Day 5; for Respiratory distress (Gp. “S” = 100): Day 8, 4 hours after LPS; for Wet/dry lung weight (corrected for body weight): Day 8, after LPS 2.5 mg/kg ip
Method: Experiment 5B. This study explores the effect of immX extensions on sV-nephrilin (SEQ ID NO:31) vs V-nephrilin, as well as in a longer peptide also containing the immX extension (Traumatin-3N1A: SEQ ID NO:35) on in vivo efficacy in a rat scald-endotoxemia model. Animals were treated with peptides using a widely used protocol previously described (see, for example, U.S. Pat. No. 10,369,191). Adult Sprague Dawley rats of both sexes (250-300 gm, Charles River Laboratories, Wilmington, MA, USA) were injected with peptide plus equimolar ferric iron once daily by subcutaneous bolus injection, days 1-7; Treatment group sizes were (n=6): group S=sham-treated; group B=burn+vehicle; group V=burn+1 mg/kg V-nephrilin (V); group sV=burn+1 mg/kg sV-nephrilin (immX3N1sV); group T=burn+1 mg/kg Traumatin-3N1A. The first dose was administered after completion of the scald procedure. Injection volume was 400 uL. Control animals received the same volume of vehicle. On Day 8, animals received a single intraperitoneal injection of 2.5 mg/kg lipopolysaccharide (LPS; Sigma Cat #L-2880) and animals were then monitored by oximeter (MouseOx, Starr Life Sciences) for 4 hours, when respiratory distress (breath distension*breaths/min) was assessed relative to baseline. This was followed by sacrifice and tissue collection as in the published protocol, except that bronchoalveolar lavage (BAL) was collected and cells were recovered from BAL by centrifugation. These cells were stained with fluorescently-labeled antibodies for flow cytometry in order to ascertain granulocyte counts, as shown below. Results of the peptide comparison are presented in the table below. *p<0.05 vs “B” control. #p<0.05 vs “V” group.

[8] = tested on: Pancreatic protease Type I; assay: Experiment 5A peptide stability to protease degradation; format: in vitro ADME; settings: 20 minutes at 37 degrees C, read-out: percentage of surviving peptide after protease treatment
Method: Duplicate wells per dilution point in a 96-well NTA-coated plate (G-Biosciences, St. Louis, MO) charged with ferric chloride were adsorbed with 2 ug imm3N1V (V-nephrilin) or immX3N1 (sV-nephrilin) peptide per well for 30 min at room temperature, washed, then incubated with 100 ul/well of 8 or 2 μg/ml protease (Sigma Catalog #P4630, Pancreatic protease Type I) for 20 minutes at 37 degrees C. Plates were washed with PBS buffer and the remaining peptide bound was measured using an in-house calibrated anti-immodulin ELISA (rabbit polyclonal #2501). The percentages of surviving peptide after 8 or 2 μg/ml protease treatment were, respectively: V-nephrilin (imm3N1V): 57.6±2.3% and 79.0±0.7%; sV-nephrilin (immX3N1): 75.1±2.8% and 90.4±3.4% (p<0.001 at both concentrations). Thus, the immX tripeptide extension at the C-terminus using D-amino acids improved peptide stability to protease degradation.

[9] = Day 1, burn + 1 mg/kg peptide plus equimolar ferric iron, subcutaneous once daily
[10] = burn + 1 mg/kg peptide plus equimolar ferric iron, subcutaneous once daily
[11] = burn + 1 mg/kg peptide days 1-7
[12] = Day 8, after LPS, burn + 1 mg/kg peptide days 1-7

Row | Ferric iron binding, fluorescence standardized to immX3AVD control peptide (100), Avg ± SD [6] | Compound | CD169+ (AU) (THP1-Dual monocytes [4]) | Plasma albumin mg/ml (24 hr IR) [7, 9] | Change in body weight (Pct vs Day 1) [7, 10] | Respiratory distress (Gp. “S” = 100) [7, 11] | Wet/dry lung weight (corrected for body weight) [7, 11] | BAL His48+ granulocytes (FITC units) [7, 12] | remaining at 20 min ([8]; 2 μg/ml protease) [%] | remaining at 20 min ([8]; 8 μg/ml protease) [%] | also measured
1 | – | Oc1c(C(Nc2nc3ccccc3s2)c2ccc(OC(F)F)cc2)ccc2cccnc12 (stereo not shown) [RIG-I agonist [b], reference compound] | – | – | – | – | – | – | – | – | percent survival of A375 cells, RIG-I ag without peptide (A375 cells; RIG-I agonist 4 uM alone (No peptide)): 100.7%; CD169 (AU) (THP1-Dual monocytes [1]): 131.6 ± 4.6** AU
2 | 100.0 | CC(C)[C@H](NC(=O)[C@H](C)NC(=O)[C@H](Cc1c[nH]c2ccccc12)NC(=O)[C@H](CS)NC(=O)[C@H](Cc1ccccc1)NC(=O)CNC(=O)[C@H](CCCNC(=N)N)NC(=O)[C@H](CCCCN)NC(=O)[C@H](CCCNC(=N)N)NC(=O)CNC(=O)[C@H](CCCCN)NC(=O)[C@H](CO)NC(=O)[C@@H]1CCCN1C(=O)[C@H](CCCNC(=N)N)NC(=O)[C@H](CS)NC(=O)[C@H](CCC(N)=O)NC(=O)[C@H](CCCCN)NC(=O)[C@H](CCCCN)NC(=O)[C@H](CCCCN)NC(=O)[C@H](Cc1ccc(O)cc1)NC(=O)[C@H](Cc1ccccc1)NC(=O)CNC(=O)[C@H](CCCCN)NC(=O)[C@@H](N)CCCCN)C(=O)N[C@@H](CC(=O)O)C(=O)O [immX3AVD] (H-KKGFYKKKQCRPSKGRKRGFCWAVD-OH; N-terminus and C-terminus assumed) | 100 | – | – | – | – | – | – | – | Clec12A(AU) (THP1-Dual monocytes [2]): 100 AU; Heparin binding, counts normalized for immX3 peptide binding=100 [3]: 100.0 ± 4.7; Hyaluronate binding, counts normalized for immX3 peptide binding=100 [5]: 100.0 ± 22.8
3 | – | CC(C)C[C@H](NC(=O)[C@H](Cc1ccc(O)cc1)NC(=O)[C@H](CC(=O)O)NC(=O)[C@H](CCC(=O)O)NC(=O)[C@@H](NC(=O)[C@@H](NC(=O)CNC(=O)[C@@H](N)CCCNC(=N)N)C(C)C)[C@@H](C)O)C(=O)N[C@@H](CCCNC(=N)N)C(=O)N[C@@H](CC(C)C)C(=O)N[C@@H](CCC(=O)O)C(=O)N[C@H](C(=O)N[C@@H](CC(C)C)C(=O)N[C@H](C(=O)N[C@@H](CCC(N)=O)C(=O)N[C@@H](CCCCN)C(=O)N[C@H](C(=O)N[C@H](C(=O)N[C@@H](CO)C(=O)N[C@@H](CCCCN)C(=O)NCC(=O)N[C@@H](Cc1ccccc1)C(=O)N[C@@H](Cc1ccc(O)cc1)C(=O)N[C@@H](CCCCN)C(=O)N[C@@H](CCCCN)C(=O)N[C@@H](CCCCN)C(=O)N[C@@H](CCC(N)=O)C(=O)N[C@@H](CS)C(=O)N[C@@H](CCCNC(=N)N)C(=O)N1CCC[C@H]1C(=O)N[C@@H](CO)C(=O)N[C@@H](CCCCN)C(=O)NCC(=O)N[C@@H](CCCNC(=N)N)C(=O)N[C@@H](CCCCN)C(=O)N[C@@H](CCCNC(=N)N)C(=O)NCC(=O)N[C@@H](Cc1ccccc1)C(=O)N[C@@H](CS)C(=O)N[C@@H](Cc1c[nH]c2ccccc12)C(=O)O)C(C)C)C(C)C)C(C)C)[C@@H](C)O [V-nephrilin] (H-RGVTEDYLRLETLVQKVVSKGFYKKKQCRPSKGRKRGFCW-OH; N-terminus and C-terminus assumed) | – | 7.9 ± 2.1 mg/mL | −9.8 ± 2.9 Pct | 349 ± 95 | 7.97 ± 0.76 | 28.9 ± 3.1* FITC units | 79 ± 0.7 | 57.6 ± 2.3 | Plasma IL-6 [7, 9]: 31.4 ± 19 pg/mL; BAL fluid IL1-beta [7, 12]: 112.8 ± 9.4 pg/mL; Plasma OHDG [7, 12]: 1.44 ± 1.0 ng/mL; Plasma creatinine [7, 12]: 0.91 ± 0.3 mg/dL
4 | – | RGVTEDYLRLETLVQKVVSKGFYKKKQCRPSKGRKRGFCWAVD (cysteines drawn unpaired) [sV-nephrilin] | – | 7.4 ± 1.6* mg/ml | −5.1 ± 3.6* Pct | 203 ± 30*# | 7.07 ± 0.48* | 26.8 ± 4.0* FITC units | 90.4 ± 3.4 | 75.1 ± 2.8 | Plasma IL-6 (pg/ml) [7, 9]: 17.5 ± 9.3* pg/ml; BAL fluid IL1-beta (pg/ml) [7, 12]: 67.1 ± 16*# pg/ml; Plasma OHDG (ng/ml) [7, 12]: 1.31 ± 0.6* ng/ml; Plasma creatinine (mg/dL) [7, 12]: 0.73 ± 0.2* mg/dL
5 | – | (rg108)-KKGFYKKKQCRPSKGRKRGFCW (RG108-KKGFYKKKQCRPSKGRKRGFCW; cysteine pairing not given here) [imm3rg8, imm3 N-terminally conjugated with RG108] | – | – | – | – | – | – | – | – | percent survival of A375 cells, +RIG-I ag (A375 cells; peptide 2 uM plus RIG-I agonist 4 uM): 105.8%; percent survival of A375 cells, Buffer (A375 cells; peptide 2 uM, no RIG-I agonist): 89.9** percent
6 | 97.5 ± 5.1 | KKGFYKKKQCRPSKGRKRGFCWRVD [immX3RVD] | 88.1 ± 4.2 | – | – | – | – | – | – | – | CCL22 (THP1-Dual monocytes [4]; culture supernatant): 272.5 ± 35.7 pg/mL
